In patent US12138398B2, “Methods and devices for providing a stimulus to a subject to induce gamma oscillations” (Massachusetts Institute of Technology, priority 2015, dated 2024):
“Also recorded” adds a separate entry of the source.

Experiments:
Format in all cases: in vivo, mouse
[1] = tested on: CK-p25 Tg mice; test: Brain weight and lateral ventricle expansion in CK-p25 Tg mice
Description: A study was conducted to examine the effect of gamma exposure and/or administration in accordance with some embodiments on DNA damage and neuronal loss in the visual cortex of a subject. For the study, an inducible mouse model of p25 accumulation (i.e., a creatine kinase carboxyl-terminal fragment p25 Tg mouse (CK-p25 Tg mouse)) was used. […] A study was conducted to compare groups of mice under different treatment regimens. FIG. 84 is a diagram of the groups including CK-control mice 8400, untreated CK-p25 Tg mice 8402, CK-p25 Tg mice treated with memantine (10 mg/kg daily) 8404, CK-p25 Tg mice exposed to the 40-Hz light flicker (one hour daily for 6 weeks) in accordance with some embodiments 8406, and CK-p25 Tg mice treated with memantine and also exposed to the 40-Hz light flicker 8408. Memantine is a medication used with limited success to treat severe AD by blocking NMDA receptors, thereby acting on the glutamatergic system. […] For example, gamma exposure reduced and/or prevented CKp-25-induced loss of brain weight. FIG. 85 is bar graph comparing brain weight change in CK-control mice, untreated CK-p25 Tg mice, CK-p25 Tg mice treated with memantine, CK-p25 Tg mice exposed to the 40-Hz light flicker in accordance with some embodiments, and CK-p25 Tg mice treated with both memantine and the 40-Hz light flicker. Brain weight loss was pronounced in untreated CK-p25 Tg mice, CK-p25 Tg mice treated with memantine, and CK-p25 Tg mice treated with both memantine and the 40-Hz light flicker. However, CK-p25 Tg mice exposed to the 40-Hz light flicker in accordance with some embodiments retained more brain weight. […] For example, gamma exposure reduced and/or prevented CKp-25-induced abnormal lateral ventricle expansion in subjects. FIG. 86 is bar graph comparing fold change of lateral ventricle expansion in CK-control mice, untreated CK-p25 Tg mice, CK-p25 Tg mice treated with memantine, CK-p25 Tg mice exposed to the 40-Hz light flicker in accordance with some embodiments, and CK-p25 Tg mice treated with both memantine and the 40-Hz light flicker with expansion in the CK-control mice as a baseline. Lateral ventricle expansion was pronounced in untreated CK-p25 Tg mice, CK-p25 Tg mice treated with memantine, and CK-p25 Tg mice treated with both memantine and the 40-Hz light flicker. Lateral ventricles in CK-p25 Tg mice exposed to the 40-Hz light flicker in accordance with some embodiments expanded much less than the lateral ventricles in the other CK-p25 Tg mice.

[2] = tested on: CK-p25 Tg mice; test: Cortical (Hoechst) and neuronal (NeuN) layer thickness in CK-p25 Tg mice; conditions: for thickness of neuronal layer of the insular cortex / thickness of SS1-neuronal layer: NeuN; for thickness of SS1-neuronal layer / thickness of SS1-cortical layer: somatosensory cortex
[3] = tested on: CK-p25 Tg mice; test: as above; conditions: visual cortex; for thickness of V1-neuronal layer: NeuN
Description: A study was conducted to examine the effect of gamma exposure and/or administration in accordance with some embodiments on DNA damage and neuronal loss in the visual cortex of a subject. For the study, an inducible mouse model of p25 accumulation (i.e., a creatine kinase carboxyl-terminal fragment p25 Tg mouse (CK-p25 Tg mouse)) was used.
A study was conducted to compare groups of mice under different treatment regimens. FIG. 84 is a diagram of the groups including CK-control mice 8400, untreated CK-p25 Tg mice 8402, CK-p25 Tg mice treated with memantine (10 mg/kg daily) 8404, CK-p25 Tg mice exposed to the 40-Hz light flicker (one hour daily for 6 weeks) in accordance with some embodiments 8406, and CK-p25 Tg mice treated with memantine and also exposed to the 40-Hz light flicker 8408. Memantine is a medication used with limited success to treat severe AD by blocking NMDA receptors, thereby acting on the glutamatergic system.
Cortical layer loss was gauged using nuclear staining with Hoechst labels (i.e., blue fluorescent dyes used to stain DNA). Neuronal layer loss was gauged using NeuN, a neuronal nuclear antigen that is commonly used as a biomarker for neurons. FIG. 89 is a bar graph depicting average thickness of the V1-cortical layer in each group, and FIG. 90 is a bar graph depicting average thickness of the V1-NeuN-positive cell layer in each group.

[4] = tested on: CK-p25 Tg mice; test: γH2AX-positive cells (DNA damage) in CK-p25 Tg mice
Description: A study was conducted to examine the effect of gamma exposure and/or administration in accordance with some embodiments on DNA damage and neuronal loss in the visual cortex of a subject. For the study, an inducible mouse model of p25 accumulation (i.e., a creatine kinase carboxyl-terminal fragment p25 Tg mouse (CK-p25 Tg mouse)) was used. […] A study was conducted to compare groups of mice under different treatment regimens. FIG. 84 is a diagram of the groups including CK-control mice 8400, untreated CK-p25 Tg mice 8402, CK-p25 Tg mice treated with memantine (10 mg/kg daily) 8404, CK-p25 Tg mice exposed to the 40-Hz light flicker (one hour daily for 6 weeks) in accordance with some embodiments 8406, and CK-p25 Tg mice treated with memantine and also exposed to the 40-Hz light flicker 8408. Memantine is a medication used with limited success to treat severe AD by blocking NMDA receptors, thereby acting on the glutamatergic system. DNA double strand breaks (DSB) are one example of DNA damage in eukaryotic cells, causing genomic instability, leading to tumorigenesis and possibly accelerated aging. Phosphorylated histone H2AX (γH2AX) was used as a biomarker of cellular response to DSB. FIG. 99 is bar graph comparing the amount of γH2AX-positive cells in CK-control mice, untreated CK-p25 Tg mice, CK-p25 Tg mice treated with memantine, CK-p25 Tg mice exposed to the 40-Hz light flicker in accordance with some embodiments, and CK-p25 Tg mice treated with both memantine and the 40-Hz light flicker. Cells positive for γH2AX were almost non-existent in CK-control mice, but very high in untreated CK-p25 Tg mice, indicating high amounts of DSB and other DNA damage. Treatment with memantine reduced the amount of γH2AX-positive cells in CK-p25 Tg mice compared to the untreated group. […] Thus, FIG. 99 illustrates how 40-Hz visual flicker treatment in accordance with some embodiments can reduce DNA damage in the visual cortex.

[5] = memantine + 40-Hz light flicker
[6] = memantine alone, compared to untreated CK-p25 Tg

CC12CC3CC(C)(C1)CC(N)(C3)C2 [memantine]
Brain weight loss ([1]; memantine 10 mg/kg daily): pronounced | Lateral ventricle expansion ([1]; memantine 10 mg/kg daily): pronounced; also recorded: largest | Brain weight loss [1, 5]: pronounced | Lateral ventricle expansion [1, 5]: pronounced; also recorded: largest | thickness of neuronal layer of the insular cortex [2, 5]: 848 ± 15 µm | thickness of neuronal layer of the insular cortex ([2]; memantine alone): 850 ± 18 µm | thickness of cortical layer of the insular cortex [2, 5]: 965 ± 16 µm | thickness of cortical layer of the insular cortex ([2]; memantine alone): 983 ± 12 µm | thickness of SS1-neuronal layer [2, 5]: 650 ± 11 µm | thickness of SS1-neuronal layer ([2]; memantine alone): 629 ± 9 µm | thickness of SS1-cortical layer [2, 5]: 778 ± 13 µm | thickness of SS1-cortical layer ([2]; memantine alone): 756 ± 11 µm | thickness of V1-neuronal layer [3, 5]: 691 ± 20 µm | thickness of V1-neuronal layer ([3]; memantine alone): 660 ± 7 µm | thickness of V1-cortical layer [3, 5]: 821 ± 22 µm | thickness of V1-cortical layer ([3]; memantine alone): 788 ± 9 µm | number of γH2AX-positive cells in hippocampus [4, 5]: significantly increased | number of γH2AX-positive cells in insular cortex [4, 5]: significantly increased | number of γH2AX-positive cells in somatosensory cortex [4, 5]: significantly increased | number of γH2AX-positive cells in visual cortex [4, 5]: significantly increased | amount of γH2AX-positive cells in hippocampus [4, 6]: reduced | amount of γH2AX-positive cells in insular cortex [4, 6]: reduced | amount of γH2AX-positive cells in somatosensory cortex [4, 6]: reduced | amount of γH2AX-positive cells in visual cortex [4, 6]: reduced
